Test results as given in patent US8815872B2, “Macrocyclics pyrimidines as aurora kinase inhibitors” (Merck Patent GmbH, priority 2008, dated 2014).
Where two headings read alike, the source gives them in different places.

Tests used:
MiaPaca2 = experiment: Cellular activity MiaPaca2; assay type: cell-based; conditions: Homo sapiens, MIA PaCa-2
How it was run: (§1)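 Cultured cells were exposed to compounds at various concentrations for roughly one hour to one week, enough to induce cell death or inhibit migration. Viable cells remaining after treatment were then counted.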

[1] = molecular target: kinases (not incl. Aurora); experiment: Kinase inhibition profile (not incl. Aurora); assay type: biochemical; conditions: at 1 μM; hit means >79% inhibition
Description: (§2) The Aurora and other kinase assays described here were performed on two Caliper Life Sciences systems, the LC3000 and the Desktop Profiler. These provide data on enzyme activity via measurement of the relative amounts of phosphorylated or unphosphorylated fluorescently labelled substrate peptide at the end of an enzymatic reaction. These different states of peptide are resolved by applying a potential difference across the sample. The presence of a charged phosphate group on the product (as opposed to the substrate) causes a different peptide mobility between the two peptides. This is visualized by excitation of a fluorescent label on the substrate and product peptides and represented as peaks within the analysis software.
The Desktop Profiler utilizes the same principal as the LC 3000 for calculating percentage conversion of a substrate to product. Caliper Life Sciences provided proprietary flash frozen pre-made 384 well plates containing selected kinases. Each column in the 384 well plate contained a particular selected kinase. A second plate, the ‘substrate plate’ contained a mix of fluorescently labeled peptide substrate and ATP. These were arranged in columns so that transfer for substrate plate to enzyme plate provided the correct enzyme with the correct substrate/ATP concentration.
Compounds were added to a thawed enzyme plate in the desired format, in single concentrations. Reactions were initiated by transfer of the ubstrate/ATP mix from the substrate plate. The enzyme plate was incubated for 90 mins at 25 °C. The reaction was stopped by addition of […] of Stop Buffer (100 mM HEPES pH 7.5, 0.015% Brij-35, 10 mM EDTA (Sigma, E7889)).
Plates were read in a manner identical to that of the LC3000, and the ratio between substrate and product peaks provided the activity of the enzyme in that well. This was best represented by a plate heat map which colors each well by percent inhibition as compared to positive and negative controls (no inhibitors and no ATP respectively).

Aurora B = Aurora B (Homo sapiens, UniProt Q96GD4); experiment: Aurora B enzyme assay (Caliper); assay type: biochemical
Chain of Aurora B (Q96GD4 whole entry): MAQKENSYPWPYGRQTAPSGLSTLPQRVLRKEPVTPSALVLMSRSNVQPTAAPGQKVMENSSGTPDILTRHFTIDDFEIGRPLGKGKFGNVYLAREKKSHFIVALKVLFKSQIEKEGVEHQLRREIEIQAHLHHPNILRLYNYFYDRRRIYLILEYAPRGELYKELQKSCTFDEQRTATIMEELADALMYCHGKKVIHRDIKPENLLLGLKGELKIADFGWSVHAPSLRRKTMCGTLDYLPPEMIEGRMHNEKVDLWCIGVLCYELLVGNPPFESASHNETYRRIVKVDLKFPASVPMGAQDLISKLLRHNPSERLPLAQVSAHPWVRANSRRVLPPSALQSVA
How it was run: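 Kinase activity was measured by microfluidic mobility-shift separation of phosphorylated and unphosphorylated fluorescently labelled substrate peptide at the end of the enzymatic reaction. Product and substrate were resolved by their charge difference and detected by fluorescence.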

[2] = snar bond
A549 = experiment: Cellular activity A549; assay type: cell-based; conditions: Homo sapiens
How it was run: as §1

Aurora A = molecular target: T1, Aurora A (Homo sapiens, UniProt O14965); experiment: Aurora A enzyme assay (Caliper LC3000 mobility shift); assay type: biochemical
T1 construct: N-terminal GST fusion with full length Aurora A (1-403 amino acids); purchased Carna Biosciences 05-101
T1 sequence (O14965 1-403): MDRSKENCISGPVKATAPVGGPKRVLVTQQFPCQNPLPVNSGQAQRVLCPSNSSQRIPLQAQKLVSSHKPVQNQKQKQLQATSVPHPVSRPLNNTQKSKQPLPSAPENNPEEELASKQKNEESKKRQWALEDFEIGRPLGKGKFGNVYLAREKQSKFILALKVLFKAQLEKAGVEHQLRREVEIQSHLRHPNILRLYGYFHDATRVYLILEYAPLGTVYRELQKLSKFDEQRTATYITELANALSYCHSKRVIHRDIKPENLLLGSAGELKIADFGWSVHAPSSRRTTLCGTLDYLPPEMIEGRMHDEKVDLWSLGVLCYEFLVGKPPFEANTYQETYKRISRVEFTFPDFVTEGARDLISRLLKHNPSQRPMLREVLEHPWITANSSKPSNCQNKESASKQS
How it was run: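 Full-length N-terminal GST-Aurora A (0.067 ng/µl) with 15 µM ATP and 1 µM FITC-LRRASLG peptide in 100 mM HEPES pH 7.5, 1 mM MgCl2, 1 mM DTT, 0.015% Brij-35, 90 min at 25 °C, EDTA-stopped. Off-chip mobility shift measured percent substrate conversion; IC50 from sigmoidal dose-response fit.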

Ret(h) = molecular target: T2, Ret(h) (Homo sapiens, UniProt P07949); experiment: Inhibition of other kinases IC50 (Table 2); assay type: biochemical
T2 construct: purchased Caliper Life Sciences
T2 sequence (P07949 29-1114): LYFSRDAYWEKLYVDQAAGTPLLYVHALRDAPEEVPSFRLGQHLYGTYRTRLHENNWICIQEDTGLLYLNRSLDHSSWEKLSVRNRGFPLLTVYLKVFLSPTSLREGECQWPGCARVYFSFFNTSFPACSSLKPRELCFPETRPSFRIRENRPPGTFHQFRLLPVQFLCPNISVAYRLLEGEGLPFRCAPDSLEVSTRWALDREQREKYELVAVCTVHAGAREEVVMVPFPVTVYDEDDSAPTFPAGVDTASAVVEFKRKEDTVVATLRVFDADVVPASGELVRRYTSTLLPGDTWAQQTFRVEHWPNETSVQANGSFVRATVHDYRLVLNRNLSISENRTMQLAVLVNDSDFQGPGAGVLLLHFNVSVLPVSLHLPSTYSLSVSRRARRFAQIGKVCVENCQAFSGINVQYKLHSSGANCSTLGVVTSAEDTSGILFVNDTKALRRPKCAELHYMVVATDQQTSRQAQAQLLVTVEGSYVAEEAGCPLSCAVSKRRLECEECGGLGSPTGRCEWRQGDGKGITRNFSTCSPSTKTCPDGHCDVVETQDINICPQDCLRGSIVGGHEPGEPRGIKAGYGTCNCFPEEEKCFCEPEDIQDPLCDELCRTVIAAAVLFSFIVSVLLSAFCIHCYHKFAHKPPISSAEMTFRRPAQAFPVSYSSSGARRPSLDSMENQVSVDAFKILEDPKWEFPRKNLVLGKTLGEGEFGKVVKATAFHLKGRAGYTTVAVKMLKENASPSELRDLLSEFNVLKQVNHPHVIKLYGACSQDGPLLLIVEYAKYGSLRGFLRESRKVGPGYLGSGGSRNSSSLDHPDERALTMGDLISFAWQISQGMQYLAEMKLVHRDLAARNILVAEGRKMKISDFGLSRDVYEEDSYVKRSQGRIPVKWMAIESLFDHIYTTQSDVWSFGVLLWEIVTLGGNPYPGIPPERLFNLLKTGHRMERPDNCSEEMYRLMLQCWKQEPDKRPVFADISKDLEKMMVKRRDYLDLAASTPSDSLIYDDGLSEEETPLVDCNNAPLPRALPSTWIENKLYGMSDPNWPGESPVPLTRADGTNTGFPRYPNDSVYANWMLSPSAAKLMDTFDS
Description: as §2

IRAK4(h) = molecular target: T3, IRAK4(h) (Homo sapiens, UniProt Q9NWZ3); experiment: Inhibition of other kinases IC50 (Table 2); assay type: biochemical
T3 construct: purchased Caliper Life Sciences
T3 sequence (Q9NWZ3 1-460): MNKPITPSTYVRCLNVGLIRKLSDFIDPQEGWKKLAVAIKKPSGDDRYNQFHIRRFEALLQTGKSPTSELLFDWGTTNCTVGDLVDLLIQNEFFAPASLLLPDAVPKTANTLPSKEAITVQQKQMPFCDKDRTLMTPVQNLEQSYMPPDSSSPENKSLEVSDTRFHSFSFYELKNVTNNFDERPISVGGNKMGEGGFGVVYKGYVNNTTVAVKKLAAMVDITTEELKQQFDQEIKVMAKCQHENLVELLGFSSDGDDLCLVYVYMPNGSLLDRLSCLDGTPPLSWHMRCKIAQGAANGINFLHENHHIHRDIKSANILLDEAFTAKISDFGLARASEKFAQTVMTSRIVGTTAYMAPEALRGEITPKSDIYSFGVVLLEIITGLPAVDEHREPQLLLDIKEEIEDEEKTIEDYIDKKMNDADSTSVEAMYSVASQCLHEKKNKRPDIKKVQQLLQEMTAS
Description: as §2

Pyk2(h) = molecular target: T4, Pyk2(h) (Homo sapiens, UniProt Q14289); experiment: Inhibition of other kinases IC50 (Table 2); assay type: biochemical
T4 construct: purchased Caliper Life Sciences
T4 sequence (Q14289 whole entry): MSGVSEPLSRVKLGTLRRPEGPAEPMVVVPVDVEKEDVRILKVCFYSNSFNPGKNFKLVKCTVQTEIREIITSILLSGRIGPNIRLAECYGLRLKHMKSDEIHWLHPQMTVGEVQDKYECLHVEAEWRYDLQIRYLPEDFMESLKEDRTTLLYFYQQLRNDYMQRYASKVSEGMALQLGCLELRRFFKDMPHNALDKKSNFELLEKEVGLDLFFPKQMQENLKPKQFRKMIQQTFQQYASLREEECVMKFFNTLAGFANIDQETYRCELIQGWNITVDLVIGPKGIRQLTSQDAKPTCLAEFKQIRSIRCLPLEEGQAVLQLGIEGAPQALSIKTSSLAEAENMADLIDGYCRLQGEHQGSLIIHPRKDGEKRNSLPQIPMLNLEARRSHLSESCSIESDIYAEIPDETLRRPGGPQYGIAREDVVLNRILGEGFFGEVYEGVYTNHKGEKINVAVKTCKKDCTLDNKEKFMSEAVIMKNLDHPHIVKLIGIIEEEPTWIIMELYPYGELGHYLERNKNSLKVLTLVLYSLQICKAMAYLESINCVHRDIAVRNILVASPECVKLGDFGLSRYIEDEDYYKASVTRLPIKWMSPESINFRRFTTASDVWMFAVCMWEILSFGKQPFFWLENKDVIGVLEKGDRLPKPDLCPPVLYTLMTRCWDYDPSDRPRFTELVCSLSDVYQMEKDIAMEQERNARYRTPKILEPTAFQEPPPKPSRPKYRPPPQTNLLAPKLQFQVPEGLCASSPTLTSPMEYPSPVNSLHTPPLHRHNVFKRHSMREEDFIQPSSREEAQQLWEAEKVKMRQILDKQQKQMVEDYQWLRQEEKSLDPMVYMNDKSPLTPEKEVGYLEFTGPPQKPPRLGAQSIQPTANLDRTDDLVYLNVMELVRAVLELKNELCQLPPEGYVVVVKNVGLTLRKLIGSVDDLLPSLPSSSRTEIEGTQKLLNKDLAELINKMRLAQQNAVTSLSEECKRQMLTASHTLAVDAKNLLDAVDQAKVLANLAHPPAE
Description: as §2

FAK(h) = molecular target: T5, FAK(h) (Homo sapiens, UniProt Q05397); experiment: Inhibition of other kinases IC50 (Table 2); assay type: biochemical
T5 construct: purchased Caliper Life Sciences
T5 sequence (Q05397 whole entry): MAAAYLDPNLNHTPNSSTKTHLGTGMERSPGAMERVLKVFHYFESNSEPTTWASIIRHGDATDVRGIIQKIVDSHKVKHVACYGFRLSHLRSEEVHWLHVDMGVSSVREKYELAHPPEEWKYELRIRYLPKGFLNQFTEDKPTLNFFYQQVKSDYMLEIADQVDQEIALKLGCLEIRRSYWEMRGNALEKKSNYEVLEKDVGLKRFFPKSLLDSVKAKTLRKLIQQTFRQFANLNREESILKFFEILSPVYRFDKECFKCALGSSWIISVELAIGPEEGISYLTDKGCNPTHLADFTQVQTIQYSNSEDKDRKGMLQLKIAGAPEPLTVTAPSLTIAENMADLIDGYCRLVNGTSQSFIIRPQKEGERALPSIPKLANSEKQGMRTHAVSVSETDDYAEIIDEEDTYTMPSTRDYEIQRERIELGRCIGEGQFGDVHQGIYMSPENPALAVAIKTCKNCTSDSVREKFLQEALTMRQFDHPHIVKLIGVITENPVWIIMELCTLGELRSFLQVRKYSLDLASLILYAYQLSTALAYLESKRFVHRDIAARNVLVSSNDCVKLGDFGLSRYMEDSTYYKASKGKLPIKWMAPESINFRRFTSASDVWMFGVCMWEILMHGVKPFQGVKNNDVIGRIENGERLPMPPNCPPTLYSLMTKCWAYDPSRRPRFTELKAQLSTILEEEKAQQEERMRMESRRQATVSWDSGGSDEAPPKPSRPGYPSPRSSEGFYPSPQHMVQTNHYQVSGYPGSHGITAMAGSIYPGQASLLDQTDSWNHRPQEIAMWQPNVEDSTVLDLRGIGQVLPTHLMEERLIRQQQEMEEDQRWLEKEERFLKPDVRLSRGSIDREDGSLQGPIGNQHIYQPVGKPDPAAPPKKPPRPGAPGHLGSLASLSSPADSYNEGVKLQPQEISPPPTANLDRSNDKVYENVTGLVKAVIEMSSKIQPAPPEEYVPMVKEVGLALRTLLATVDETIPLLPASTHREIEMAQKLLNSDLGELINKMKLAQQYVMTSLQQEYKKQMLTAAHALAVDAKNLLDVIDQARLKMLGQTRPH
Description: as §2

Tie2(h) = molecular target: T6, Tie2(h) (Homo sapiens, UniProt Q02763); experiment: Inhibition of other kinases IC50 (Table 2); assay type: biochemical
T6 construct: purchased Caliper Life Sciences
T6 sequence (Q02763 23-1124): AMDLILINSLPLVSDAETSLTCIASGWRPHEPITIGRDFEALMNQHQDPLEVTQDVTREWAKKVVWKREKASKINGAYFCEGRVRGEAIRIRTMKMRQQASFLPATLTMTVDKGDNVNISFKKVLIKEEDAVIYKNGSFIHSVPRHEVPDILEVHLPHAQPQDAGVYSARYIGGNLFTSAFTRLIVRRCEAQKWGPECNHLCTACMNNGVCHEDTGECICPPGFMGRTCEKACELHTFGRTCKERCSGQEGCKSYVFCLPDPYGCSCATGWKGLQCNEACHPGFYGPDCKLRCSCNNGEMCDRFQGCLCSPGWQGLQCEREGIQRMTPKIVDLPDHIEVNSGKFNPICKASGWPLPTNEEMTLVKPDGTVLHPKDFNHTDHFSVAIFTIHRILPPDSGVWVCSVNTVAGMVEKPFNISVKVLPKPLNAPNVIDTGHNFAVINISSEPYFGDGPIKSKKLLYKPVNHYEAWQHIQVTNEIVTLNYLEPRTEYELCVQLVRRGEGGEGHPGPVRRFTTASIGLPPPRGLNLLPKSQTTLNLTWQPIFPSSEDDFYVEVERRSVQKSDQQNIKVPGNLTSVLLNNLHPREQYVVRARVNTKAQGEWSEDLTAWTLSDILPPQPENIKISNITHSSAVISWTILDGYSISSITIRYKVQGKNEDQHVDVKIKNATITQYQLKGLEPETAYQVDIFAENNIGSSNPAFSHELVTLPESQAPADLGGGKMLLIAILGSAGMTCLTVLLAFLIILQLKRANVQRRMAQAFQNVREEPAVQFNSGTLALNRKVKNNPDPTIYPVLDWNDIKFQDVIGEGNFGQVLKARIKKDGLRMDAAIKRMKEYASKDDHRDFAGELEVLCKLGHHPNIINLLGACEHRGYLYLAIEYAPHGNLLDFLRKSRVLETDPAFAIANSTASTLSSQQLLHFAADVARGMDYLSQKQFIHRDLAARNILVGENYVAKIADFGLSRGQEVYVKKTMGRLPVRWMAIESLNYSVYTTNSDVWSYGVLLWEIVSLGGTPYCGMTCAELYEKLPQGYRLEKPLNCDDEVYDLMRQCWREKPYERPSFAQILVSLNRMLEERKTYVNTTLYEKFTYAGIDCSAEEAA
Description: as §2

For `NC(=O)[C@H]1[C@@H]2CC3CNCc4cccc(c4)Nc4ncc(F)c(n4)N[C@@H]1[C@@H]3C2` (some centres unmarked), the IC50 (MiaPaca2) was 1 to 100 nM, the “Kinase Inhibition Profile (not incl. Aurora) # kinases hit/# kinases tested” value [1] was 1/50 at 1 μM and the IC50 (Aurora B) was 1 to 100 nM. It also gave a ring closure, yield of all isomers ([2]; from NC(=O)[C@H]1[C@@H]2CC(CNCc3cccc(N)c3)[C@@H](C2)[C@H]1Nc1nc(Cl)ncc1F) of 7.6%, an IC50 (A549) of 1 to 100 nM and an IC50 (Aurora A) of 101 to 1000 nM.
With `NC(=O)[C@H]1[C@@H]2CC3CNCCc4cccc(c4)Nc4ncc(F)c(n4)N[C@@H]1[C@@H]3C2` (some centres unmarked) the IC50 (MiaPaca2) was 101 to 1000 nM, the “Kinase Inhibition Profile (not incl. Aurora) # kinases hit/# kinases tested” value [1] was 1/53 at 1 μM and the IC50 (Aurora B) was 1 to 100 nM. For the same compound, the ring closure, yield of all isomers ([2]; from NC(=O)[C@H]1[C@@H]2CC(CNCCc3cccc(N)c3)[C@@H](C2)[C@H]1Nc1nc(Cl)ncc1F) was 18.5%, the IC50 (A549) was 101 to 1000 nM and the IC50 (Aurora A) was 101 to 1000 nM.
Compound `NC(=O)[C@H]1[C@H]2C[C@H]3[C@H]1Nc1nc(ncc1F)Nc1cccc(c1)CCS[C@@H]3C2` [Example 18] has an IC50 (Ret(h)) of 1000 to 6250 nM, an IC50 (IRAK4(h)) of 1 to 100 nM and an IC50 (Pyk2(h)) of 101 to 1000 nM. It also gave an IC50 (FAK(h)) of 101 to 1000 nM and an IC50 (Tie2(h)) of 1000 to 6250 nM.
